{
  "source": "patent US12268666B2",
  "about": "“Spray-dried dispersions, formulations, and polymorphs of (S)-5-amino-3-(4-((5-fluoro-2-methoxybenzamido)methyl)phenyl)-1-(1,1,1-trifluoropropan-2-yl)-1H-pyrazole-4-carboxamide” (Loxo Oncology, Inc., priority 2018, dated 2025)",
  "biological_target": "T1, CSK (Homo sapiens, UniProt P41240)",
  "T1 construct": "purchased Reaction Biology",
  "T1 sequence (P41240 whole entry)": "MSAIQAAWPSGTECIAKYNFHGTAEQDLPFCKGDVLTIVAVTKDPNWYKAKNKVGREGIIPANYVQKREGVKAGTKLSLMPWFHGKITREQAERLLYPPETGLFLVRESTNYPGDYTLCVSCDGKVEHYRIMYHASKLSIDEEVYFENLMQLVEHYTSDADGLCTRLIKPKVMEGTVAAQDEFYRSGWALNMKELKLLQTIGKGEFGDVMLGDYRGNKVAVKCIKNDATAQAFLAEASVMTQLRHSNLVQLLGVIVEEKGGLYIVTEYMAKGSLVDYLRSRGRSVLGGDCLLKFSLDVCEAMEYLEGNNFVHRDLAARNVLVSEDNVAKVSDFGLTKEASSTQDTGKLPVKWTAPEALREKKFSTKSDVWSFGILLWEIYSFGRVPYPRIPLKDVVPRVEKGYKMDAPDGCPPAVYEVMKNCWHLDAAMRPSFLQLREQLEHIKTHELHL",
  "experiment": "Kinase selectivity, radiolabeled ATP activity assay",
  "format": "biochemical",
  "protocol": "Each assay is performed at an ATP concentration close to the Km for each enzyme. […] BRK, CSK, ERBB4, FYN, MEK1, MEK2, TXK, and YES1 The inhibitory activity of the compound of Formula I on the enzymatic activity of these kinases and TEC is determined using a radiolabeled ATP activity assay conducted with an ATP concentration near the ATP Km for each enzyme. After co-incubation with a serial dilution of the compound of Formula I, the quantity of ^33P incorporated into a peptide substrate is measured and the data analyzed using standard curve fitting methods.",
  "data": [
    {"smiles": "COc1ccc(F)cc1C(=O)NCc1ccc(-c2nn([C@@H](C)C(F)(F)F)c(N)c2C(N)=O)cc1", "note": "[compound of Formula I, (S)-5-amino-3-(4-((5-fluoro-2-methoxybenzamido)methyl)phenyl)-1-(1,1,1-trifluoropropan-2-yl)-1H-pyrazole-4-carboxamide]", "values": [
      {"measurement": "remaining activity at 1 µM", "setting": "1.0 μM compound, ATP close to Km, read-out: Percent of Control (POC)", "value": "< 50", "unit": "%"},
      {"measurement": "IC50", "setting": "ATP near Km", "value": 552, "unit": "nM"}
    ]}
  ]
}
